Marks after values point to notes of the source that are not given here.
Test system: hypertensive subjects
Assay: Seated automated office blood pressure (AOBP) in randomized, placebo-controlled, dose-ranging study
Type: in vivo, human
Design: Difference from placebo in change in blood pressure: unit not given here
Settings: for Seated AOBP DBP change from baseline (CFB), Mean (SD) / Seated AOBP DBP, Mean (SD) / Seated AOBP SBP change from baseline (CFB), Mean (SD) / Seated AOBP SBP, Mean (SD) / LSM Δ with Placebo, seated AOBP DBP (MMRM) / Modelled (MMRM) LSM (SEM) change from baseline, seated AOBP DBP / LSM Δ from Placebo, change from baseline in seated AOBP SBP (MMRM) / Modelled (MMRM) LSM (SEM) change from baseline, seated AOBP SBP / Subjects with seated AOBP SBP/DBP ≤130/80 mmHg: No / Subjects with seated AOBP SBP/DBP ≤130/80 mmHg: Yes: FAS
Description: A randomized, double-blinded, placebo-controlled, dose-ranging, multicenter study was conducted to evaluate the effect of orally administered Compound A HBr on blood pressure for the treatment of hypertension in male and female subjects ≥18 years of age.
The study consists of two parts. For enrollment into Part 1 of the study, a subject's value of plasma renin activity (PRA) must be ≤1 ng/mL/h based on morning measurement. If the value of PRA >1 ng/mL/h based on morning measurement, then subjects may be eligible to enter Part 2 of the study.
For Part 1, 163 enrolled subjects ≥18 years of age were randomized into 6 equal treatment groups (1:1:1:1:1:1) to 12.5 mg BID, 25 mg BID, 12.5 mg QD, 50 mg QD, 100 mg QD, or placebo. After a review of interim clinical data, the 2 lowest dose levels (12.5 mg QD and 12.5 mg BID) were stopped for future randomization due to a lack of consistent meaningful reduction of blood pressure, but the patients randomized to that point remained in the study through completion. Thus, after the review of interim clinical data, subjects were randomized into 4 equal treatment groups (1:1:1:1) to 25 mg BID, 50 mg QD, 100 mg QD, or placebo.
For Part 2, 36 enrolled subjects ≥18 years of age were randomized (5:1) to either 100 mg QD Compound A HBr or placebo such that the Compound A HBr treatment group consisted of approximately 30 subjects and the placebo treatment group will consist of approximately 6 subjects.
Subjects orally administered the assigned study drug (Compound A HBr or placebo) according to the assigned dosing regimen for 8 weeks beginning on Study Day 1. All subjects in Part 1 (regardless of dosing group) received BID dosing to preserve the integrity of the blind; active drug is administered as the morning dose for all QD dose groups. Subjects returned to the research facility or were seen by the clinical investigator or approved home health care professional at the end of Study Weeks 1, 2, 3, 4, 5, 6, 7, and 8 (±2 days) for protocol-defined efficacy and safety assessments and procedures, assessment of adverse events (AEs), and confirmation of compliance with study drug usage. Subjects also completed a telephone visit and blood pressure (BP) check at home approximately 3 days post last dose of study drug. Subjects attended up to 14 full clinic visits, including a pre-Screening visit, a Screening/start of Placebo Run-in visit, a second visit during Placebo Run-in, a clinic visit to initiate the ABPM procedure, a Randomization visit, 8 weekly visits during double-blind treatment, and an end-of-study visit scheduled 4 weeks after the last study treatment for final efficacy and safety assessments.
An automated oscillometric sphygmomanometer device was used to measure the subjects' systolic and diastolic blood pressure in office after approximately 5 minutes of rest in the seated position.
The primary endpoint is the change in office-measured (mean of last 2 of 5 unattended measurements using an automated oscillometric sphygmomanometer device after approximately 5 minutes of rest in the seated position) systolic blood pressure (SBP) from baseline to the end of Study Week 8.
Secondary endpoints of this study were: • (a) Change in 24-hour ambulatory blood pressure monitoring (ABPM) parameters (systolic and diastolic) from baseline to the end of Study Week 7. • (b) Change in office-measured SBP from baseline to the end of Study Weeks 1, 2, 3, 4, 5, 6, and 7. • (c) Change in office-measured diastolic blood pressure (DBP) from baseline to the end of Study Weeks 1, 2, 3, 4, 5, 6, 7, and 8. • (d) Proportion of subjects who achieve office-measured BP of ≤130/80 mm Hg by the end of Study Week 8.

[1] = 100 mg QD Part 1, Week 8, Parts 1 & 2 model

## CC(=O)N[C@H]1CC[C@H](NC(=O)CN2CCN(c3nncc(-c4ccc(C)cc4)n3)CC2)CC1 [Compound A HBr]
25 mg BID, Thiazide Yes
  Difference from placebo in change in blood pressure: −8.3
25 mg BID, Week 1, Part 1
  Seated AOBP DBP change from baseline (CFB), Mean (SD): −2.22 (5.68) mmHg
  Seated AOBP DBP, Mean (SD): 76.70 (9.28) mmHg
  Seated AOBP SBP change from baseline (CFB), Mean (SD): −6.57 (10.78) mmHg
  Seated AOBP SBP, Mean (SD): 134.37 (14.17) mmHg
25 mg BID, Week 2, Part 1
  Seated AOBP DBP change from baseline (CFB), Mean (SD): −2.42 (8.03) mmHg
  Seated AOBP DBP, Mean (SD): 76.50 (10.74) mmHg
  Seated AOBP SBP change from baseline (CFB), Mean (SD): −6.37 (13.43) mmHg
  Seated AOBP SBP, Mean (SD): 134.57 (17.75) mmHg
25 mg BID, Week 3, Part 1
  Seated AOBP DBP change from baseline (CFB), Mean (SD): −0.55 (14.99) mmHg
  Seated AOBP DBP, Mean (SD): 78.72 (15.35) mmHg
  Seated AOBP SBP change from baseline (CFB), Mean (SD): −5.34 (18.35) mmHg
  Seated AOBP SBP, Mean (SD): 136.34 (19.78) mmHg
25 mg BID, Week 4, Part 1
  LSM Δ with Placebo, seated AOBP DBP (MMRM): −5.94 mmHg
  Modelled (MMRM) LSM (SEM) change from baseline, seated AOBP DBP: −6.47 (1.41) mmHg
  Seated AOBP DBP change from baseline (CFB), Mean (SD): −5.80 (7.01) mmHg
  Seated AOBP DBP, Mean (SD): 73.26 (7.79) mmHg
  Seated AOBP SBP change from baseline (CFB), Mean (SD): −9.63 (12.34) mmHg
  Seated AOBP SBP, Mean (SD): 131.85 (13.59) mmHg
25 mg BID, Week 5, Part 1
  Seated AOBP DBP change from baseline (CFB), Mean (SD): −2.82 (8.82) mmHg
  Seated AOBP DBP, Mean (SD): 76.29 (9.91) mmHg
  Seated AOBP SBP change from baseline (CFB), Mean (SD): −9.16 (15.72) mmHg
  Seated AOBP SBP, Mean (SD): 132.25 (16.30) mmHg
25 mg BID, Week 6, Part 1
  Seated AOBP DBP change from baseline (CFB), Mean (SD): −3.07 (8.82) mmHg
  Seated AOBP DBP, Mean (SD): 76.04 (10.57) mmHg
  Seated AOBP SBP change from baseline (CFB), Mean (SD): −7.09 (11.66) mmHg
  Seated AOBP SBP, Mean (SD): 134.32 (13.96) mmHg
25 mg BID, Week 7, Part 1
  Seated AOBP DBP change from baseline (CFB), Mean (SD): −4.87 (8.84) mmHg
  Seated AOBP DBP, Mean (SD): 73.89 (10.76) mmHg
  Seated AOBP SBP change from baseline (CFB), Mean (SD): −11.00 (13.60) mmHg
  Seated AOBP SBP, Mean (SD): 130.74 (15.42) mmHg
25 mg BID, Week 8, Part 1
  LSM Δ from Placebo, change from baseline in seated AOBP SBP (MMRM): −6.97 mmHg
  LSM Δ with Placebo, seated AOBP DBP (MMRM): −2.49 mmHg
  Modelled (MMRM) LSM (SEM) change from baseline, seated AOBP DBP: −4.12 (1.68) mmHg
  Modelled (MMRM) LSM (SEM) change from baseline, seated AOBP SBP: −11.07 (2.65) mmHg
  Seated AOBP DBP change from baseline (CFB), Mean (SD): −3.68 (11.71) mmHg
  Seated AOBP DBP, Mean (SD): 75.43 (13.06) mmHg
  Seated AOBP SBP change from baseline (CFB), Mean (SD): −10.13 (14.02) mmHg
  Seated AOBP SBP, Mean (SD): 131.29 (16.59) mmHg
  Subjects with seated AOBP SBP/DBP ≤130/80 mmHg: No: 17 (56.7) n (%)
  Subjects with seated AOBP SBP/DBP ≤130/80 mmHg: Yes: 13 (43.3) n (%)
50 mg QD, BMI 25-30
  Difference from placebo in change in blood pressure: 2.0
50 mg QD, BMI >30
  Difference from placebo in change in blood pressure: −16.6*
50 mg QD, Part 1, Week 8
  Mean placebo-adjusted reduction in AOBP SBP: 9.58 mmHg
  Placebo-adjusted reduction in AOBP DBP, thiazide diuretic use at baseline: −7.7 mmHg
  Placebo-adjusted reduction in AOBP SBP from baseline, by baseline AOBP SBP tertile: −19.9 mmHg
  Placebo-adjusted reduction in AOBP SBP, concomitant use of thiazide diuretics: −12.9 mmHg
50 mg QD, Thiazide No
  Difference from placebo in change in blood pressure: −4.3
50 mg QD, Thiazide Yes
  Difference from placebo in change in blood pressure: −13.2*
50 mg QD, Week 1, Part 1
  Seated AOBP DBP change from baseline (CFB), Mean (SD): −4.34 (8.86) mmHg
  Seated AOBP DBP, Mean (SD): 80.54 (7.58) mmHg
  Seated AOBP SBP change from baseline (CFB), Mean (SD): −8.32 (14.27) mmHg
  Seated AOBP SBP, Mean (SD): 133.50 (12.23) mmHg
50 mg QD, Week 2, Part 1
  Seated AOBP DBP change from baseline (CFB), Mean (SD): −5.91 (7.38) mmHg
  Seated AOBP DBP, Mean (SD): 78.96 (8.27) mmHg
  Seated AOBP SBP change from baseline (CFB), Mean (SD): −9.54 (13.78) mmHg
  Seated AOBP SBP, Mean (SD): 132.29 (10.55) mmHg
50 mg QD, Week 3, Part 1
  Seated AOBP DBP change from baseline (CFB), Mean (SD): −3.84 (8.83) mmHg
  Seated AOBP DBP, Mean (SD): 81.04 (9.15) mmHg
  Seated AOBP SBP change from baseline (CFB), Mean (SD): −9.50 (16.67) mmHg
  Seated AOBP SBP, Mean (SD): 132.32 (13.45) mmHg
50 mg QD, Week 4, Part 1
  LSM Δ with Placebo, seated AOBP DBP (MMRM): −3.95 mmHg
  Modelled (MMRM) LSM (SEM) change from baseline, seated AOBP DBP: −4.49 (1.41) mmHg
  Seated AOBP DBP change from baseline (CFB), Mean (SD): −5.30 (8.33) mmHg
  Seated AOBP DBP, Mean (SD): 79.57 (8.36) mmHg
  Seated AOBP SBP change from baseline (CFB), Mean (SD): −9.07 (15.77) mmHg
  Seated AOBP SBP, Mean (SD): 132.75 (11.85) mmHg
50 mg QD, Week 5, Part 1
  Seated AOBP DBP change from baseline (CFB), Mean (SD): −6.10 (7.22) mmHg
  Seated AOBP DBP, Mean (SD): 78.58 (7.53) mmHg
  Seated AOBP SBP change from baseline (CFB), Mean (SD): −8.38 (15.19) mmHg
  Seated AOBP SBP, Mean (SD): 134.27 (15.39) mmHg
50 mg QD, Week 6, Part 1
  Seated AOBP DBP change from baseline (CFB), Mean (SD): −6.26 (8.48) mmHg
  Seated AOBP DBP, Mean (SD): 78.63 (8.17) mmHg
  Seated AOBP SBP change from baseline (CFB), Mean (SD): −10.72 (14.86) mmHg
  Seated AOBP SBP, Mean (SD): 131.11 (12.49) mmHg
50 mg QD, Week 7, Part 1
  Seated AOBP DBP change from baseline (CFB), Mean (SD): −3.75 (11.03) mmHg
  Seated AOBP DBP, Mean (SD): 80.88 (11.41) mmHg
  Seated AOBP SBP change from baseline (CFB), Mean (SD): −7.69 (18.91) mmHg
  Seated AOBP SBP, Mean (SD): 133.19 (16.39) mmHg
50 mg QD, Week 8, Part 1
  LSM Δ from Placebo, change from baseline in seated AOBP SBP (MMRM): −9.58 mmHg
  LSM Δ with Placebo, seated AOBP DBP (MMRM): −5.46 mmHg
  Modelled (MMRM) LSM (SEM) change from baseline, seated AOBP DBP: −7.09 (1.70) mmHg
  Modelled (MMRM) LSM (SEM) change from baseline, seated AOBP SBP: −13.69 (2.67) mmHg
  Seated AOBP DBP change from baseline (CFB), Mean (SD): −8.05 (9.13) mmHg
  Seated AOBP DBP, Mean (SD): 76.82 (9.82) mmHg
  Seated AOBP SBP change from baseline (CFB), Mean (SD): −13.18 (17.17) mmHg
  Seated AOBP SBP, Mean (SD): 128.64 (13.69) mmHg
  Subjects with seated AOBP SBP/DBP ≤130/80 mmHg: No: 16 (57.1) n (%)
  Subjects with seated AOBP SBP/DBP ≤130/80 mmHg: Yes: 12 (42.9) n (%)
100 mg QD Part 1, Week 4, Parts 1 & 2 model
  Modelled (MMRM) LSM (SEM) change from baseline, seated AOBP DBP: −5.88 (1.49) mmHg
[1]
  Modelled (MMRM) LSM (SEM) change from baseline, seated AOBP DBP: −4.57 (1.53) mmHg
  Modelled (MMRM) LSM (SEM) change from baseline, seated AOBP SBP: −12.08 (2.68) mmHg

Source: patent US20260053811A1, “METHODS OF TREATING HYPERTENSION IN OBESE SUBJECTS” (Mineralys Therapeutics, Inc., priority 2022, published 2026)
